Columns and labels:
CV-A24 = assay: Post-treatment assay, antiviral spectrum; format: cell-based, Coxsackievirus A24
Protocol: (§1) We were also interested in the antiviral potential of ZAF-47 against other Enteroviruses. As such, we performed post-treatment assay on RD cells infected with other Enteroviruses such as CV-A16, CV-A6, Echo7, CV-B5, CV-A24 and EV-D68.
(§2) To determine the inhibitory profiles of the hits, post treatment assay was performed. Seeded 24-well plates, with 1.5 × 10^5 RD cells per well, were incubated overnight at 37 °C with 5% CO2. The seeded cells were infected with EV-A71 (100 µL per well, MOI = 1) for 1 h at 37 °C with 5% CO2 and then rinsed with 1 mL of PBS twice. Different concentrations of the hits were used to treat the infected cells for 12 h at 37 °C with 5% CO2. At 12 hpi, the plates were frozen and thawed for 2 cycles (−80°C; 37 °C) before collection of supernatants to measure the viral titres via viral plaque assay.
(§3) Measurement of the viral titres from collected supernatants was derived from viral plaque assays. To do this, 24-well plates, seeded with 2.4 × 10^5 RD cells per well, were used in plaque assays for EV-A71, EV-D68, Echo7, CV-A6, CV-A16 and CV-A24 while 24-well plates, seeded with 1.2 × 10^5 Vero cells per well, were used in plaque assays for CV-B5. Seeded cells were incubated overnight at 37 °C with 5% CO2. […] Subsequent formation of viral plaques was counted manually to quantify the viral titre in PFU/mL […]

EV-D68 = assay: Post-treatment assay, antiviral spectrum; format: cell-based, Enterovirus D68
Protocol: as §1, §2, §3

CV-A6 = assay: Post-treatment assay, antiviral spectrum; format: cell-based, Coxsackievirus A6
Protocol: as §1, §2, §3

[1] = system: EV-A71 proteins, VP2 and VP0; assay: SDS-PAGE and Western blot of EV-A71 proteins; format: cell-based, human enterovirus A71 (EV-A71) strain 41; conditions: 6 h
Protocol: Since ZAF-47 possibly targets EV-A71 post-entry stages, we were interested in looking at the effect of ZAF-47 on EV-A71 protein expression. To do so, we first infected RD cells with EV-A71. We then treated the infected cells with different concentration of ZAF-47 for 6 h and collected the cell lysates for SDE-PAGE and Western blot. […] Since ZAF-47 acts on the post-entry stages and reduces EV-A71 protein expression, we hypothesized that ZAF-47 could be inhibiting RNA replication or protein translation, or possibly both, resulting in reduced viral protein expression.
Seeded 24-well plates, with 1.5 × 10^5 RD cells per well, were incubated overnight at 37 °C with 5% CO2. After which, the cells were subjected to EV-A71 infection (100 µL per well, MOI = 1) for 1 h. Reduced serum DMEM was used for mock-infection. The infected cells were then rinsed with PBS twice before treatment with 0.1% DMSO or ZAF-47 at various concentrations for 6 h at 37 °C with 5% CO2. After 6 h of drug treatment, cells were lysed with 100 µL of 1x Laemmli buffer and cell lysate was stored at −80 °C.
The cell lysate samples were subsequently boiled for 10 min at 100 °C and loaded on to a 10% acrylamide gel. SDS-PAGE was run for 2.5 h at 100V to separate the proteins. Bio Basic 10–250 kDa Protein Ladder BZ0011G (Bio Basic, Markham, Canada) was also loaded as a molecular-weight size marker. […]

Q: Which results are given for `CC(=O)OC[C@]1(C)C(=O)CC[C@@]2(C)C(C/C=C3/C(=O)OC[C@@H]3Oc3cccc4cccnc34)=C(C)CC[C@@H]21` [ZAF-47, (14β)-(8′-Quinolinoxy)-3-ketone-9-dehydro-17-hydro-19-acetoxy–andrographolide]?
A: viral titre (CV-A24; 10 µM, CV-A24-infected RD cells): reducing the viral titres of the above-listed enteroviruses significantly; IC50 (CV-A24; CVA24, CV-A24, Enterovirus C, drug treatment duration 12 h, RD cells): 1.09 µM; viral titre (EV-D68; 10 µM, EV-D68-infected RD cells): reducing the viral titres of the above-listed enteroviruses significantly; IC50 (EV-D68; EVD68, EV-D68, Enterovirus D, drug treatment duration 12 h, RD cells): 5.1 µM; viral titre (CV-A6; 10 µM, CV-A6-infected RD cells): reducing the viral titres of the above-listed enteroviruses significantly; IC50 (CV-A6; CVA6, CV-A6, Enterovirus A, drug treatment duration 96 h, RD cells): 3.16 µM; VP0 band intensity reduction in comparison to the control ([1]; 5 µM, normalized with β-actin): 35 fold; VP2 band ([1]; different concentrations): not with any ZAF-47 treatment

Reference: paper PMC8880313, “Discovery of Novel Andrographolide Derivatives as Antiviral Inhibitors against Human Enterovirus A71” (Pharmaceuticals, 2022)
